Here are results for one compound from US20080119561A1, “METHODS FOR PREVENTING OR DELAYING CATHETER- BASED RESVASCULARIZATION” (Pfizer Inc, priority 1998, published 2008).

Data set [1] has as its system patients with CAD and LDL-C≧130 mg/dL. The note with it: atorvastatin 80 mg.
Procedure: This is an 18-month, open-label, randomized, multicenter study in 341 patients with elevated LDL-C (≧130 mg/dL whether or not they are receiving lipid-lowering medication) who have had angiography. […] Patients must be Class I or II based on the Canadian Cardiovascular Society classification of angina severity, and must be able to complete 4 minutes of a Bruce protocol treadmill test, or a 20-W/min supine bicycle exercise test.
The study is conducted in patients with LDL-C≧130 mg/dL and TG≦400 mg/dL who have asymptomatic or mildly to moderately symptomatic CAD (with or without antianginal therapy) and in whom a recanalization procedure is recommended. “Usual care” represents a heterogeneous mix of therapies that may include calcium channel blocker use or lipid-lowering therapy (including diet, behavior modification or antihyperlipidemic medication). Patients who have undergone angiography, or are about to undergo angiography, will be considered for this study based on the results of the angiogram and other inclusion criteria. The study will be performed using a common protocol at all study sites. […]
All patients will be randomized to either Group 1 or Group 2 according to a randomization code. […] Usual care will be determined by the investigator or the patient's primary physician (or whoever typically decides the patient's follow-up care) as he or she sees fit. […]
Data set [2] concerns hypercholesterolemic patients. The note with it: 2.5 to 80 mg/day, 6 weeks; cited from earlier work.
The test system of data set [3] is cholesterol-fed male New Zealand White rabbits. The note with it: 8 weeks, compared to progression controls; cited from earlier work.
Data set [4] relates to subjects and patients. The note with it: over 400 subjects and patients; cited from earlier work.

Each structure is given as a SMILES string.

In the case of `CC(C)c1c(C(=O)Nc2ccccc2)c(-c2ccccc2)c(-c2ccc(F)cc2)n1CC[C@@H](O)C[C@@H](O)CC(=O)O` [atorvastatin], in data set [1] (over 18 months, angioplasty group 21%), the “patients who encountered an adverse heart event” value is recorded as 13%. Also, the “LDL cholesterol on treatment, average” value in data set [1] (from 140 mg/dL before treatment) was 77 mg/dL. Further, in data set [2], the “HDL-C, apolipoprotein AI (apo AI) or Lp (a)” value is reported as “No significant changes”; the “apolipoprotein B (apo B)” value was “significantly reduced”; the “drug-related serious adverse events” value is on record as “no drug-related serious adverse events”; the “reduction of TG levels” value is on record as “up to 32%”. Moreover, the total cholesterol entry in data set [2] is listed as “significantly reduced”. In data set [3], the “percentage of discernible thoracic aortic lesions” value was “reduced”; the “reduction of extracellular matrix and smooth muscle cell area” value is recorded as 63%; the “reduction of size of iliac-femoral lesions” value was “approximately 68%”. Also, the “most frequently occurring adverse events” value in data set [4] is “headache, infection (mostly colds), constipation, and back pain”.
